Columns and labels:
Assay type in all cases: in vivo, Amaranthus palmeri
[1] = tested on: AMAPA WR-2015-002 (resistant against glyphosate, PPO-, HPPD- and ALS-inhibitor herbicides); experiment: Greenhouse pre-emergence herbicidal activity, AMAPA WR-2015-002; details: 3 weeks, mean of 6
Description: (§1) Test conditions in the greenhouse trial, herbicidal activity against weed plants pre-emergence.
(§2) Seeds of weed plants and crop plants are sown in 3.5 inches (8.89 cm) pots containing a 50:50 mix of Redi-earth (Sun Gro, Bellevue, Washington) and soil at 0.5 to 0.75 inches (1.27 to 1.905 cm) deep. The compounds of the disclosure, formulated in the form of wettable powders (WP) or emulsifiable concentrates (EC), are then applied to the dry soil surface, in the form of an aqueous suspension or emulsion, using a laboratory track sprayer calibrated to deliver 15 gallons per acre (140.31 L/ha). Following the treatment, the pots are placed in a greenhouse and overhead irrigated with 0.25 inches (0.635 cm) for activation and maintained under good growth conditions for the test plants. Visual scoring of the damage to the trial plants takes place after a trial time of 3 weeks in comparison to untreated controls (herbicidal activity in percent (%): 100% activity=plants have died; 0% activity=as control plants). The results are set out in the tables which follow.
AMAPA (WR-2015-002) Amaranthus palmeri (resistant against glyphosate, PPO-, HPPD- and ALS-inhibitor herbicides) (Tennessee).
(§3) Herbicidal activity against different weeds (undesired plants) was calculated as follows: E^C=A+B−A×B/100; E^C=(A+B+C)−(A×B+A×C+B×C)/100+(A×B×C)/10000; • wherein: • A, B, C=respective value in percent of active ingredient A at a dose rate of a g/ha, ingredient B at a dose rate of b g/ha and ingredient C at a dose rate of c g/ha; • E^C=Expected value according to Colby (S. R. Colby; Weeds 15 (1967), 20-22) in % at a dose rate of a+b (+c), each in g/ha; • Δ=Difference (%) between measured value E and expected value E^C (%) (measured value minus expected value). Evaluation: • measured value E is greater than E^C: →synergism (+Δ); • measured value E is equal to E^C: →additive effect; • measured value E is smaller than E^C: →antagonism (−Δ);
(§4) All values in Tables 1 to 15 are mean values of 6 repetitions.

[2] = tested on: AMAPA WR-2013-043 (resistant against HPPD-inhibitor herbicides); experiment: Greenhouse pre-emergence herbicidal activity, AMAPA WR-2013-043; details: 3 weeks, mean of 6
Description: as §1, §2
AMAPA (WR-2013-043) Amaranthus palmeri (resistant against HPPD-inhibitor herbicides) (Kansas).
as §3, §4

[3] = tested on: AMAPA WR-2015-008 (resistant against glyphosate and metribuzin (PSII-inhibitor), PPO-, HPPD- and ALS-inhibitor herbicides); experiment: Greenhouse pre-emergence herbicidal activity, AMAPA WR-2015-008; details: mean of 6
Description: as §1, §2
AMAPA (WR-2015-008) Amaranthus palmeri (resistant against glyphosate and metribuzin (PSII-inhibitor), PPO-, HPPD- and ALS-inhibitor herbicides).
as §3, §4

| SMILES | Activity [%] against AMAPA WR-2015-002 ([1]; rate 75 g/ha) | Activity [%] against AMAPA WR-2015-002 ([1]; rate 150 g/ha) | Activity [%] against AMAPA WR-2013-043 ([2]; rate 75 g/ha) | Activity [%] against AMAPA WR-2013-043 ([2]; rate 150 g/ha) | Activity [%] against AMAPA WR-2015-008 ([3]; rate 37 g/ha, visual scoring after 3 weeks) | Activity [%] against AMAPA WR-2015-008 ([3]; rate 75 g/ha, 3 weeks) | Activity [%] against AMAPA WR-2015-008 ([3]; rate 150 g/ha, 3 weeks) | Activity [%] against AMAPA WR-2015-002 ([1]; rate 105 g/ha) | Activity [%] against AMAPA WR-2013-043 ([2]; rate 52 g/ha) | Activity [%] against AMAPA WR-2013-043 ([2]; rate 105 g/ha) | Activity [%] against AMAPA WR-2015-008 ([3]; rate 52 g/ha, 3 weeks) | Activity [%] against AMAPA WR-2015-008 ([3]; rate 105 g/ha, 3 weeks) |
| --- | --- | --- | --- | --- | --- | --- | --- | --- | --- | --- | --- | --- |
| O=C(Nc1ccc(F)cc1F)c1cccnc1Oc1cccc(C(F)(F)F)c1 [DFF, 2′,4′-difluoro-2-[3-(trifluoromethyl)phenoxy]pyridine-3-carboxanilide] | 45.8% | 71.7% | 47.5% | 63.3% | 40.8% | 51.7% |  |  |  |  |  |  |
| CSc1nnc(C(C)(C)C)c(=O)n1N [MRB, 4-amino-6-(1,1-dimethylethyl)-3-(methylthio)-1,2,4-triazin-5(4H)-one] |  |  |  |  |  | 39.2% | 45% |  |  |  |  |  |
| CS(=O)(=O)c1ccc(C(=O)C2C(=O)CCCC2=O)c([N+](=O)[O-])c1 [MST, 2-[4-(methylsulfonyl)-2-nitrobenzoyl]cyclohexane-1,3-dione] |  |  |  |  |  |  |  | 82.5% | 55.0% | 70.5% | 57.7% | 85% |
